Target: T1, CYP11A (Homo sapiens, UniProt P05108)
T1 construct: A 1.45-kb CYP11A1 gene fragment amplified as a result of the above-described reaction; expressed in transfected cells; host or cells: Escherichia coli BL21(DE3), plasmid pCYP11A-ARX (strain BL21CYP11)
T1 sequence (P05108 40-521): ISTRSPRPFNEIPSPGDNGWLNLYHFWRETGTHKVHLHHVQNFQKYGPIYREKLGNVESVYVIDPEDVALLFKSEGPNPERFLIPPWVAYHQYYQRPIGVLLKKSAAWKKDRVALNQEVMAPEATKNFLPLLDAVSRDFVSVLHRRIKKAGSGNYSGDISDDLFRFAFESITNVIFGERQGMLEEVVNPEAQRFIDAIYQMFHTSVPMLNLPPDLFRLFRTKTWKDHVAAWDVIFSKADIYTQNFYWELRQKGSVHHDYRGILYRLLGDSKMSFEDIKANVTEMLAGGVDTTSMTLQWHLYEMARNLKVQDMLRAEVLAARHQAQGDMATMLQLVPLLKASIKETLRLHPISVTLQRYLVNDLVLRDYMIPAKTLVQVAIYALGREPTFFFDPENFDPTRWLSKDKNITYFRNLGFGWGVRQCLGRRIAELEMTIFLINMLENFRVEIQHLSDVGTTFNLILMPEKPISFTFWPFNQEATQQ
Assay: Conversion reaction of substrates by CYP11A-expressing Escherichia coli
Assay type: cell-based
Method: The Escherichia coli expression strain BP215 was inoculated into 2 ml of an M9 mix medium (Na2HPO4: 0.68%, KH2PO4: 0.3%, NaCl: 0.05%, NH4C;: 0.01%, Casamino acid: 1%, D-Glucose: 0.4%, CaCl2: 0.1 mM, MgCl2: 1 mM, Thiamine: 0.002%, FeSO4: 0.1 mM, Carbenicillin: 0.005%), and it was then subjected to shaking culture at 30° C. for 17 hours, so as to obtain pre-culture solution. 0.25 ml of this pre-culture solution was inoculated into 25 ml of the main culture medium (Na2HPO4: 0.68%, KH2PO4: 0.3%, NaCl: 0.05%, NH4Cl: 0.01%, Casamino acid: 1%, CaCl2: 0.1 mM, MgCl2: 1 mM, Thiamine: 0.002%, FeSO4: 0.1 mM, Carbenicillin: 0.005%, Overnight Express™ solution: 7%, 5-Aminolevlic acid: 0.008%) using Overnight Express™ Autoinduction System (Novagen Cat. No. 71300-4), and it was then subjected to shaking culture at 25° C. for 24 hours. 5 ml of the obtained main culture solution was centrifuged (3500 rpm, 10 minutes) to obtain cell mass, and 1 ml of CV2 buffer (50 mM (pH) potassium phosphate buffer containing glycerol: 2%, carbenicillin: 0.005%, and isopropyl β-D-1-thiogalactopyranoside: 0.1 mM) was added to the obtained cell mass. Thereafter, 0.01 ml of the methanol solution of 1% 4-cholesten-3-one and 0.02 ml of an aqueous solution of 25% methyl-β-cyclodextrin were added to the mixed solution, and the obtained mixture was then shaken at 28° C. for 5 hours for the reaction. After completion of the reaction, 4 ml of methanol was added to the reaction solution, and they were then fully mixed. The obtained mixture was centrifuged, and the upper layer was then analyzed by HPLC.
A commercially available human testis cDNA (Origene Technologies, Inc.) was used as a template, and a CYP11A1 gene was amplified by PCR using a primer CYP11A-1F (SEQ ID NO: 19) and a primer CYP11A-2R (SEQ ID NO: 20), and also using KOD plus polymerase (TOYOBO Co., Ltd.). The temperature conditions applied during the PCR were 94° C./3 min, 30 cycles of (94° C./30 sec, 55° C./60 sec, and 72° C./90sec), and 72° C./5 min.
A 1.45-kb CYP11A1 gene fragment amplified as a result of the above-described reaction was purified using QIAquick PCR purification Kit (manufactured by QIAGEN), and it was then digested with Nde I and Spe I. Thereafter, the digest was ligated to Escherichia coli expression vector pT7NS-camAB, using T4 DNA ligase, and Escherichia coli DH5α was then transformed with the obtained expression vector, so as to construct a plasmid pCYP11A-camAB. Subsequently, using T4 DNA ligase, the previously prepared bovine-derived adrenodoxin reductase protein-adrenodoxin gene (adr-adx) fragment was inserted into and ligated to each of the Spe I and Bam HI sites of the above-described plasmid, and Escherichia coli DH5a was then transformed with the obtained plasmid, so as to construct plasmid pCYP11A-ARX. Thereafter, Escherichia coli BL21(DE3) was transformed with the thus constructed plasmid, and the obtained cell strain was named as BL21CYP11. The used adx-adr fragment was amplified by PCR with a plasmid pKARX (Sawada et. al. Eur. J. Biochem. 265, 950-956,1999) as a template, using primer bAdxR-1F (SEQ ID NO: 21) and primer bAdx-2R (SEQ ID NO: 22), and also using KOD plus polymerase (manufactured by TOYOBO Co., Ltd.). The temperature condition applied during the PCR were 94° C./3 min, 25 cycles of (94° C./30 sec, 60° C./30 sec, and 72° C./120sec), and 72° C./5 min.
Each substrate was subjected to the same reaction as that of Example 6, separately, and the reaction solution was then subjected to liquid separation using 1 ml of ethyl acetate. The reaction product and the substrate were extracted, and were then analyzed by HPLC.

CC(C)CCC[C@@H](C)[C@H]1CC[C@H]2[C@@H]3CCC4=CC(=O)CC[C@]4(C)[C@H]3CC[C@]12C [4-cholesten-3-one]
added substrate remained (same reaction as Example 6): 100%
Conversion rate (same reaction as Example 6 (28° C., 5 hours)): 0%

— patent US20120178124A1, “STEROL SIDE CHAIN-CLEAVING ENZYME PROTEIN AND USE THEREOF” (MITSUBISHI CHEMICAL CORPORATION, priority 2009, published 2012)
